The test in a line: Western blot analysis for "B" compounds. Particulars: read-out: Traditional Western Degradation Potency (DC50). The class given is cell-based. In short, it runs like this: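 Target protein levels given as relative mean band intensity over GAPDH from scanned immunoblots. Lysates of treated cells in RIPA buffer, equalized by BCA, separated on 10% gels and transferred to PVDF.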

On to `O=C1CCC(N2C(=O)c3cc4c(cc3C2=O)CN(C[C@H]2CC[C@@H](N3CC(Nc5ccc([C@@H]6c7ccc(O)cc7CC[C@@H]6c6ccccc6)cc5)C3)CC2)C4)C(=O)N1` (stereo partly drawn) [Compound B119, 2-(2,6-dioxopiperidin-3-yl)-6-(((1S,4s)-4-(3-((4-((1R,2S)-6-hydroxy-2-phenyl-1,2,3,4-tetrahydronaphthalen-1-yl)phenyl)amino)azetidin-1-yl)cyclohexyl)methyl)-6,7-dihydropyrrolo[3,4-f]isoindole-1,3(2H,5H)-dione], for which the DC50 is greater than 100 nM.

Turning to `O=C1CCC(N2Cc3cc4c(cc3C2=O)CN(C(=O)C2CCC(N3CC(Oc5ccc([C@@H]6c7ccc(O)cc7CC[C@@H]6c6ccccc6)cc5)C3)CC2)C4)C(=O)N1` (stereo partly drawn) [Compound B107, 3-(6-((1S,4s)-4-(3-(4-((1R,2S)-6-hydroxy-2-phenyl-1,2,3,4-tetrahydronaphthalen-1-yl)phenoxy)azetidin-1-yl)cyclohexane-1-carbonyl)-1-oxo-3,5,6,7-tetrahydropyrrolo[3,4-f]isoindol-2(1H)-yl)piperidine-2,6-dione], the DC50 was greater than 100 nM. To `O=C1CCC(N2Cc3cc4c(cc3C2=O)CN(C2CCN(CC3CN(c5ccc([C@@H]6c7ccc(O)cc7CC[C@@H]6c6ccccc6)cc5)C3)CC2)C4)C(=O)N1` (stereo partly drawn) [Compound B78, 3-(6-(1-((1-(4-((1R,2S)-6-hydroxy-2-phenyl-1,2,3,4-tetrahydronaphthalen-1-yl)phenyl)azetidin-3-yl)methyl)piperidin-4-yl)-1-oxo-3,5,6,7-tetrahydropyrrolo[3,4-f]isoindol-2(1H)-yl)piperidine-2,6-dione] belongs greater than 100 nM; to `O=C1CCC(N2C(=O)c3cc4c(cc3C2=O)CN(CCN2CCC3(CC2)CCN(c2ccc([C@@H]5c6ccc(O)cc6CC[C@@H]5c5ccccc5)cc2)CC3)C4)C(=O)N1` (mixture of isomers) [Compound B198, 2-(2,6-dioxopiperidin-3-yl)-6-(2-(9-(4-((1R,2S)-6-hydroxy-2-phenyl-1,2,3,4-tetrahydronaphthalen-1-yl)phenyl)-3,9-diazaspiro[5.5]undecan-3-yl)ethyl)-6,7-dihydropyrrolo[3,4-f]isoindole-1,3(2H,5H)-dione], 10 to 100 nM; to `O=C1CCC(N2C(=O)c3cc4c(cc3C2=O)CN(C(=O)CN2CCC3(CC2)CC(Oc2ccc([C@@H]5c6ccc(O)cc6CC[C@@H]5c5ccccc5)cc2)C3)C4)C(=O)N1` (stereo partly drawn) [Compound B277, 2-(2,6-dioxopiperidin-3-yl)-6-(2-(2-(4-((1R,2S)-6-hydroxy-2-phenyl-1,2,3,4-tetrahydronaphthalen-1-yl)phenoxy)-7-azaspiro[3.5]nonan-7-yl)acetyl)-6,7-dihydropyrrolo[3,4-f]isoindole-1,3(2H,5H)-dione], greater than 100 nM. To `O=C1CCC(N2C(=O)c3cc4c(cc3C2=O)CN(CC2CN(CC3CCN(c5ccc([C@@H]6c7ccc(O)cc7CC[C@@H]6c6ccc(F)cc6)cc5)CC3)C2)C4)C(=O)N1` (stereo partly drawn) [Compound B67, 2-(2,6-dioxopiperidin-3-yl)-6-((1-((1-(4-((1R,2S)-2-(4-fluorophenyl)-6-hydroxy-1,2,3,4-tetrahydronaphthalen-1-yl)phenyl)piperidin-4-yl)methyl)azetidin-3-yl)methyl)-6,7-dihydropyrrolo[3,4-f]isoindole-1,3(2H,5H)-dione] belongs greater than 100 nM. On to `CN(C1CCC(C(=O)N2Cc3cc4c(cc3C2)C(=O)N(C2CCC(=O)NC2=O)C4=O)CC1)C1CCN(c2ccc([C@@H]3c4ccc(O)cc4CC[C@@H]3c3ccccc3)cc2)CC1` (stereo partly drawn) [Compound B200, 2-(2,6-dioxopiperidin-3-yl)-6-(4-((1-(4-((1R,2S)-6-hydroxy-2-phenyl-1,2,3,4-tetrahydronaphthalen-1-yl)phenyl)piperidin-4-yl)(methyl)amino)cyclohexane-1-carbonyl)-6,7-dihydropyrrolo[3,4-f]isoindole-1,3(2H,5H)-dione], for which the DC50 was in the range of 10 to 100 nM.

Turning to `CN(C1CCC(CN2Cc3cc4c(cc3C2)C(=O)N(C2CCC(=O)NC2=O)C4)CC1)C1CCN(c2ccc([C@@H]3c4ccc(O)cc4CC[C@@H]3c3ccccc3)cc2)CC1` (stereo partly drawn) [Compound B202, 3-(6-((4-((1-(4-((1R,2S)-6-hydroxy-2-phenyl-1,2,3,4-tetrahydronaphthalen-1-yl)phenyl)piperidin-4-yl)(methyl)amino)cyclohexyl)methyl)-1-oxo-3,5,6,7-tetrahydropyrrolo[3,4-f]isoindol-2(1H)-yl)piperidine-2,6-dione], the DC50 is greater than 100 nM. With `O=C1CCC(N2C(=O)c3cc4c(cc3C2=O)CC2(C4)CN(CC(=O)N3CC(Oc4ccc([C@@H]5c6ccc(O)cc6CC[C@@H]5c5ccccc5)cc4)C3)C2)C(=O)N1` (stereo partly drawn) [Compound B300, 2′-(2,6-dioxopiperidin-3-yl)-1-(2-(3-(4-((1R,2S)-6-hydroxy-2-phenyl-1,2,3,4-tetrahydronaphthalen-1-yl)phenoxy)azetidin-1-yl)-2-oxoethyl)-5′,7′-dihydro-1'H-spiro[azetidine-3,6′-cyclopenta[f]isoindole]-1′,3′(2′H)-dione] the figure was greater than 100 nM; with `O=C1CCC(N2C(=O)c3cc4c(cc3C2=O)CN(CCN2CCC3(CC2)CN(c2ccc([C@@H]5c6ccc(O)cc6CC[C@@H]5c5ccccc5)cc2)C3)C4)C(=O)N1` (mixture of isomers) [Compound B196, 2-(2,6-dioxopiperidin-3-yl)-6-(2-(2-(4-((1R,2S)-6-hydroxy-2-phenyl-1,2,3,4-tetrahydronaphthalen-1-yl)phenyl)-2,7-diazaspiro[3.5]nonan-7-yl)ethyl)-6,7-dihydropyrrolo[3,4-f]isoindole-1,3(2H,5H)-dione], 10 to 100 nM. For the molecule `O=C1CCC(N2C(=O)c3cc4c(cc3C2=O)CN(CC2CCN(c3ccc([C@@H]5c6ccc(O)cc6CC[C@@H]5c5ccccc5)cc3)CC2)C4)C(=O)N1` (mixture of isomers) [Compound B2, 2-(2,6-dioxopiperidin-3-yl)-6-((1-(4-((1R,2S)-6-hydroxy-2-phenyl-1,2,3,4-tetrahydronaphthalen-1-yl)phenyl)piperidin-4-yl)methyl)-6,7-dihydropyrrolo[3,4-f]isoindole-1,3(2H,5H)-dione], the DC50 fell in the range of 10 to 100 nM.

Regarding `O=C1CCC(N2Cc3cc4c(cc3C2=O)CN(CC(=O)N2CCC3(CC2)CN(c2ccc([C@@H]5c6ccc(O)cc6CC[C@@H]5c5ccccc5)cc2)C3)C4)C(=O)N1` (mixture of isomers) [Compound B183, 3-(6-(2-(2-(4-((1R,2S)-6-hydroxy-2-phenyl-1,2,3,4-tetrahydronaphthalen-1-yl)phenyl)-2,7-diazaspiro[3.5]nonan-7-yl)-2-oxoethyl)-1-oxo-3,5,6,7-tetrahydropyrrolo[3,4-f]isoindol-2(1H)-yl)piperidine-2,6-dione], the half-maximal degradation concentration (DC50) is less than 10 nM.

As to `O=C1CCC(N2C(=O)c3cc4c(cc3C2=O)CN(CC2CCC3(CC2)CN(C(=O)c2ccc([C@@H]5c6ccc(O)cc6CC[C@@H]5c5ccccc5)cc2)C3)C4)C(=O)N1` (stereo partly drawn) [Compound B288, 2-(2,6-dioxopiperidin-3-yl)-6-((2-(4-((1R,2S)-6-hydroxy-2-phenyl-1,2,3,4-tetrahydronaphthalen-1-yl)benzoyl)-2-azaspiro[3.5]nonan-7-yl)methyl)-6,7-dihydropyrrolo[3,4-f]isoindole-1,3(2H,5H)-dione], the DC50 was greater than 100 nM. Regarding `O=C1CCC(N2C(=O)c3cc4c(cc3C2=O)CN(C2CCC(NCC3CN(c5ccc([C@@H]6c7ccc(O)cc7CC[C@@H]6c6ccccc6)cc5)C3)CC2)C4)C(=O)N1` (stereo partly drawn) [Compound B101, 2-(2,6-dioxopiperidin-3-yl)-6-(4-(((1-(4-((1R,2S)-6-hydroxy-2-phenyl-1,2,3,4-tetrahydronaphthalen-1-yl)phenyl)azetidin-3-yl)methyl)amino)cyclohexyl)-6,7-dihydropyrrolo[3,4-f]isoindole-1,3(2H,5H)-dione], the DC50 is greater than 100 nM. To `O=C1CCC(N2Cc3cc4c(cc3C2=O)CN(CC2CCN(c3ccc([C@@H]5c6ccc(O)cc6CC[C@@H]5c5ccccc5)cc3)CC2)C4)C(=O)N1` (mixture of isomers) [Compound B1, 3-(6-((1-(4-((1R,2S)-6-hydroxy-2-phenyl-1,2,3,4-tetrahydronaphthalen-1-yl)phenyl)piperidin-4-yl)methyl)-1-oxo-3,5,6,7-tetrahydropyrrolo[3,4-f]isoindol-2(1H)-yl)piperidine-2,6-dione] belongs greater than 100 nM; to `O=C1CCC(N2C(=O)c3cc4c(cc3C2=O)CC2(C4)CN(C(=O)CN3CC(Oc4ccc([C@@H]5c6ccc(O)cc6CC[C@@H]5c5ccccc5)cc4)C3)C2)C(=O)N1` (stereo partly drawn) [Compound B299, 2′-(2,6-dioxopiperidin-3-yl)-1-(2-(3-(4-((1R,2S)-6-hydroxy-2-phenyl-1,2,3,4-tetrahydronaphthalen-1-yl)phenoxy)azetidin-1-yl)acetyl)-5′,7′-dihydro-1'H-spiro[azetidine-3,6′-cyclopenta[f]isoindole]-1′,3′(2'H)-dione], greater than 100 nM. For the molecule `O=C1CCC(N2C(=O)c3cc4c(cc3C2=O)CCN(C(=O)CN2CC3(CCN(c5ccc([C@@H]6c7ccc(O)cc7CC[C@@H]6c6ccccc6)cc5)CC3)C2)CC4)C(=O)N1` (stereo partly drawn) [Compound B42, 2-(2,6-dioxopiperidin-3-yl)-7-(2-(7-(4-((1R,2S)-6-hydroxy-2-phenyl-1,2,3,4-tetrahydronaphthalen-1-yl)phenyl)-2,7-diazaspiro[3.5]nonan-2-yl)acetyl)-6,7,8,9-tetrahydroazepino[4,5-f]isoindole-1,3(2H,5H)-dione], the DC50 was greater than 100 nM.

For the origin of these results see patent US20260028354A1, “TETRAHYDRONAPHTHALENE DERIVATIVES AS ESTROGEN RECEPTOR DEGRADERS” (REGENT OF THE UNIVERSITY OF MICHIGAN, priority 2022, published 2026).
